These results are taken from patent US20140005163A1 (NOVARTIS AG, priority 2010, published 2014).

Test [1] relates to S6 Ribosomal Protein phosphorylation Ser235/236 in TSC1 null mouse embryo fibroblast (MEF) cells. Nature of the test: Reverse protein array assay, S6 Ribosomal Protein phosphorylation Ser235/236 in TSC1 null MEF cells. As to conditions: 1 h, pS6 ribosomal protein Ser235/236, 60 minutes incubation, read-out: p-S6 IC50. It counts as cell-based. In outline:
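TSC1−/− MEFs, seeded and held ≥20 h at 37 °C/5% CO2, were exposed to 8-step serial compound dilutions (0.02% DMSO final; DMSO vehicle control) for 60 min at 37 °C. Cells were then lysed on ice for 10 min and lysates spotted onto reverse protein array chips.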

The target of another test is T1, PI3K delta (Homo sapiens, UniProt O00329).
T1 construct: for the full-length p110-d subunit are generated and fused by overlapping PCR; p85(iSH2) fusion partner (see partner chain) (N); His tag (C); made in house; host or cells: baculovirus; Tn5 (Trichoplusia ni) or TiniPro insect cells
T1 sequence (O00329 with tags, fused parts or gaps limits assumed): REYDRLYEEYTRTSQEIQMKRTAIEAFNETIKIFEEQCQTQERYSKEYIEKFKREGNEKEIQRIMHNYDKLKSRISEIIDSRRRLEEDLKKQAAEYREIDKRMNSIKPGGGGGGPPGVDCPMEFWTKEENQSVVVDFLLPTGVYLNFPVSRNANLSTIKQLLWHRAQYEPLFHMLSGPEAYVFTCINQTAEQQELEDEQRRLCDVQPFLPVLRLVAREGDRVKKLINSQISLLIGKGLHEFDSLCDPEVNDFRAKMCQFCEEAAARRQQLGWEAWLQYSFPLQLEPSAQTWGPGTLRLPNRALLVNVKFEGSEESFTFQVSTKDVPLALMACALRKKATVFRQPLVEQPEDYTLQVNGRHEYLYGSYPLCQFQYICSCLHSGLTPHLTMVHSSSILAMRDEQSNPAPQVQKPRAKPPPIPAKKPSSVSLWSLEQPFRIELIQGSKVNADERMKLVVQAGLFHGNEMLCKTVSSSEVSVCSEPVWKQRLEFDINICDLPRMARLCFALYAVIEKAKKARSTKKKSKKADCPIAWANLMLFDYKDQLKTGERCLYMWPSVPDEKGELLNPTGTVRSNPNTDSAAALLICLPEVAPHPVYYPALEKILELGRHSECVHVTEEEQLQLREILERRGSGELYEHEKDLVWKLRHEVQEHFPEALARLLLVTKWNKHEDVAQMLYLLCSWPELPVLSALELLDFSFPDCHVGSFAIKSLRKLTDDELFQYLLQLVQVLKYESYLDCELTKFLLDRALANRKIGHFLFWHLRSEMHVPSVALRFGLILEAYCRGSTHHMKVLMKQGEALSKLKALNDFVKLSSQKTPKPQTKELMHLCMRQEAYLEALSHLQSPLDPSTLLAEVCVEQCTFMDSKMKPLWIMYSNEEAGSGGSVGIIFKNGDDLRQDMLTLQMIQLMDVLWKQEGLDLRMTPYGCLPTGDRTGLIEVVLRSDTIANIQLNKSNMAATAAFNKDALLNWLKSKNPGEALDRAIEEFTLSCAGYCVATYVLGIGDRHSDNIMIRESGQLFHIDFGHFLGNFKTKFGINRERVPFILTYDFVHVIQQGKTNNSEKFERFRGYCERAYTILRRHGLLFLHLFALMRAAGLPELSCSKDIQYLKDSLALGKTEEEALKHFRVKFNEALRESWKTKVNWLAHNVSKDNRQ
As to the kind of experiment: PI3K delta kinase assay (Kinase-Glo luminescence). It counts as biochemical. The method, boiled down: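 ATP 1 μM, PI 10 μg/mL, PI3Kδ construct BV1060 10 nM (final); 10 mM Tris pH 7.5, 3 mM MgCl2, 50 mM NaCl, 0.05% CHAPS, 1 mM DTT; 60 min RT; Kinase-Glo stop, luminescence.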
On the technique in general: Kinase-Glo measures the ATP left after a reaction by luminescence.

The target of the next test is T2, mTOR (Homo sapiens, UniProt P42345).
T2 construct: purchased Invitrogen Corporation (Carlsbad/CA, USA) PV4753
T2 sequence (P42345 1360-2549 limits assumed): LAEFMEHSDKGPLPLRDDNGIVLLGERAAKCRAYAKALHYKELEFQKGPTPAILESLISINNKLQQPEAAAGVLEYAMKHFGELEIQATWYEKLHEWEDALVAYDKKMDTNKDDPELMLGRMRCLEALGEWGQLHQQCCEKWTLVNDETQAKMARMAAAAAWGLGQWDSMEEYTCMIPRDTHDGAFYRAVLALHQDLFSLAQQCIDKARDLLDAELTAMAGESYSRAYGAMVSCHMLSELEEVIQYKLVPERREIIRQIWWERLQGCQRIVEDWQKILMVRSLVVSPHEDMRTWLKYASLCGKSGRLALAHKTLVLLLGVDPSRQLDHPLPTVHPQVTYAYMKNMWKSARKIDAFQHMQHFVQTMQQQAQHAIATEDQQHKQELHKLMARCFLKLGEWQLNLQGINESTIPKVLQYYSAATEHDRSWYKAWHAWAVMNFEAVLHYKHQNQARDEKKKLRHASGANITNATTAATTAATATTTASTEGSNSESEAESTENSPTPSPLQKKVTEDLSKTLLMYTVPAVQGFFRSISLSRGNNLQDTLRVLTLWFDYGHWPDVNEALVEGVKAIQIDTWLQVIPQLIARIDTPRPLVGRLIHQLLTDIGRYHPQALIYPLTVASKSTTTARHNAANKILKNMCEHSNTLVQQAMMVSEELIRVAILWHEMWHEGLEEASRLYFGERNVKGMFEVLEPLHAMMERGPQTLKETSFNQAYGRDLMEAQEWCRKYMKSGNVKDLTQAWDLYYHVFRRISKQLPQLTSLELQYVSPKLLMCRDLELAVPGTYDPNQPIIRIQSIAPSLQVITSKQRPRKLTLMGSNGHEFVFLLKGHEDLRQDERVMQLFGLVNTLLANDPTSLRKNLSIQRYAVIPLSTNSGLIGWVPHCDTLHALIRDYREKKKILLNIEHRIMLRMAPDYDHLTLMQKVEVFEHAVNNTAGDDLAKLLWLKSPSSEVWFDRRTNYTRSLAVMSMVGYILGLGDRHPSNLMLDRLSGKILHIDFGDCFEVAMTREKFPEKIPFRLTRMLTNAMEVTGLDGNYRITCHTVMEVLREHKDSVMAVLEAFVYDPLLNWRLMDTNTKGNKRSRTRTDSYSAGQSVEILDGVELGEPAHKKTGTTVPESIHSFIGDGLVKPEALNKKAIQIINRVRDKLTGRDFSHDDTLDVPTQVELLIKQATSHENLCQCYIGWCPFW
Nature of the test: Biochemical assay for m-TOR by TR-FRET. As to conditions: 8 μM ATP, 400 nM GFP-4EBP1, 0.5 nM mTOR. The method, boiled down: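 TR-FRET detection of pThr46 on GFP-4EBP1 (400 nM final) using Tb3+-labelled antibody (0.5 nM), added with EDTA to stop reactions. Reactions ran at rt with 0.5 nM mTOR and 8 μM ATP (final) in HEPES pH 7.5 buffer containing 10 mM MnCl2.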

For orientation: IC50 means the concentration that gives 50% inhibition. Take `Cc1nn(C(C)C)cc1-n1c(=O)n(C)c2cnc3ccc(-c4cnc(N)c(C(F)(F)F)c4)cc3c21` [Example 25.4, 8-(6-Amino-5-trifluoromethyl-pyridin-3-yl)-1-(1-isopropyl-3-methyl-1H-pyrazol-4-yl)-3-methyl-1,3-dihydro-imidazo[4,5-c]quinolin-2-one]: the values for the half-maximal inhibitory concentration (IC50) (in test [1]; at PI3K delta; at mTOR) were under 0.5 nM, 4 nM and 6 nM, respectively.

Turning to `Cc1nn(C)c(C)c1-n1c(=O)n(C)c2cnc3ccc(-c4cnc(N)c(C(F)(F)F)c4)cc3c21` [Example 25.3, 8-(6-Amino-5-trifluoromethyl-pyridin-3-yl)-3-methyl-1-(1,3,5-trimethyl-1H-pyrazol-4-yl)-1,3-dihydro-imidazo[4,5-c]quinolin-2-one], the results for the IC50 (in test [1]; on PI3K delta; at mTOR) were 2 nM, 46 nM and 116 nM, respectively.

Turning to `CNc1ccc(-c2ccc3ncc4c(c3c2)n(-c2cn(C)nc2Cl)c(=O)n4C)cn1` [Example 118.5, 1-(3-Chloro-1-methyl-1H-pyrazol-4-yl)-3-methyl-8-(6-methylamino-pyridin-3-yl)-1,3-dihydro-imidazo[4,5-c]quinolin-2-one], the IC50 in test [1] is under 0.5 nM; on PI3K delta, 5 nM; at mTOR, under 3 nM.

Consider `CCNc1cc(-c2ccc3ncc4c(c3c2)n(-c2cn(C)nc2Cl)c(=O)n4C)cnc1OC` [Example 90.1, 1-(3-Chloro-1-methyl-1H-pyrazol-4-yl)-8-(5-ethylamino-6-methoxy-pyridin-3-yl)-3-methyl-1,3-dihydro-imidazo[4,5-c]quinolin-2-one], for which the IC50 in test [1] was under 0.5 nM; at PI3K delta it was 31 nM; on mTOR, 5 nM.

Regarding `COCCOc1cc(-c2ccc3ncc4c(c3c2)n(-c2cn(C)nc2C)c(=O)n4C)cnc1C` [Example 86.2, 1-(1,3-Dimethyl-1H-pyrazol-4-yl)-8-[5-(2-methoxy-ethoxy)-6-methyl-pyridin-3-yl]-3-methyl-1,3-dihydro-imidazo[4,5-c]quinolin-2-one], the IC50 in test [1] amounted to 5 nM; at PI3K delta, 6 nM; at mTOR it was 31 nM.

With `Cc1nn(C(C)C)cc1-n1c(=O)n(C)c2cnc3ccc(-c4ccc(C(N)=O)nc4)cc3c21` [Example 112, 5-[1-(1-Isopropyl-3-methyl-1H-pyrazol-4-yl)-3-methyl-2-oxo-2,3-dihydro-1H-imidazo[4,5-c]quinolin-8-yl]-pyridine-2-carboxylic acid amide], the IC50 in test [1] is 60 nM; on PI3K delta it was 209 nM; at mTOR, 20 nM.

With `CCNc1ncc(-c2ccc3ncc4c(c3c2)n(-c2c(C)nn(C)c2C)c(=O)n4C)cc1C(F)(F)F` [Example 145.1, 8-(6-Ethylamino-5-trifluoromethyl-pyridin-3-yl)-3-methyl-1-(1,3,5-trimethyl-1H-pyrazol-4-yl)-1,3-dihydro-imidazo[4,5-c]quinolin-2-one], the half-inhibitory concentration (IC50) was found to be 50 nM in test [1], 18 nM at PI3K delta and 172 nM at mTOR.

With `Cc1nn(C)cc1-n1c(=O)n(C)c2cnc3ccc(-c4cnc(Cl)c(NS(C)(=O)=O)c4)cc3c21` [Example 223, N-{2-Chloro-5-[1-(1,3-dimethyl-1H-pyrazol-4-yl)-3-methyl-2-oxo-2,3-dihydro-1H-imidazo[4,5-c]quinolin-8-yl]-pyridin-3-yl}-methanesulfonamide], the half-maximal inhibitory concentration (IC50) in test [1] was 35 nM; on PI3K delta, 6 nM; at mTOR it was under 3 nM.

`CNc1ncc(-c2ccc3ncc4c(c3c2)n(-c2cn(C(C)C)nc2C)c(=O)n4C)cc1Cl` [Example 146.3, 8-(5-Chloro-6-methylamino-pyridin-3-yl)-1-(1-isopropyl-3-methyl-1H-pyrazol-4-yl)-3-methyl-1,3-dihydro-imidazo[4,5-c]quinolin-2-one]: the concentration for half-maximal inhibition (IC50) was found to be 3 nM in test [1], 14 nM on PI3K delta and 9 nM on mTOR.
